{"source": "paper PMC10230575", "about": "(Bioorganic & medicinal chemistry letters, 2022)", "note": "Where a chain is given by its changes, count along the chain named. pIC50: −log10 of the molar value."}
{"target": "Maxi-K (Slo1 α1/β3) (Homo sapiens, UniProt Q12791)", "sequence (Q12791 whole entry, species assumed)": "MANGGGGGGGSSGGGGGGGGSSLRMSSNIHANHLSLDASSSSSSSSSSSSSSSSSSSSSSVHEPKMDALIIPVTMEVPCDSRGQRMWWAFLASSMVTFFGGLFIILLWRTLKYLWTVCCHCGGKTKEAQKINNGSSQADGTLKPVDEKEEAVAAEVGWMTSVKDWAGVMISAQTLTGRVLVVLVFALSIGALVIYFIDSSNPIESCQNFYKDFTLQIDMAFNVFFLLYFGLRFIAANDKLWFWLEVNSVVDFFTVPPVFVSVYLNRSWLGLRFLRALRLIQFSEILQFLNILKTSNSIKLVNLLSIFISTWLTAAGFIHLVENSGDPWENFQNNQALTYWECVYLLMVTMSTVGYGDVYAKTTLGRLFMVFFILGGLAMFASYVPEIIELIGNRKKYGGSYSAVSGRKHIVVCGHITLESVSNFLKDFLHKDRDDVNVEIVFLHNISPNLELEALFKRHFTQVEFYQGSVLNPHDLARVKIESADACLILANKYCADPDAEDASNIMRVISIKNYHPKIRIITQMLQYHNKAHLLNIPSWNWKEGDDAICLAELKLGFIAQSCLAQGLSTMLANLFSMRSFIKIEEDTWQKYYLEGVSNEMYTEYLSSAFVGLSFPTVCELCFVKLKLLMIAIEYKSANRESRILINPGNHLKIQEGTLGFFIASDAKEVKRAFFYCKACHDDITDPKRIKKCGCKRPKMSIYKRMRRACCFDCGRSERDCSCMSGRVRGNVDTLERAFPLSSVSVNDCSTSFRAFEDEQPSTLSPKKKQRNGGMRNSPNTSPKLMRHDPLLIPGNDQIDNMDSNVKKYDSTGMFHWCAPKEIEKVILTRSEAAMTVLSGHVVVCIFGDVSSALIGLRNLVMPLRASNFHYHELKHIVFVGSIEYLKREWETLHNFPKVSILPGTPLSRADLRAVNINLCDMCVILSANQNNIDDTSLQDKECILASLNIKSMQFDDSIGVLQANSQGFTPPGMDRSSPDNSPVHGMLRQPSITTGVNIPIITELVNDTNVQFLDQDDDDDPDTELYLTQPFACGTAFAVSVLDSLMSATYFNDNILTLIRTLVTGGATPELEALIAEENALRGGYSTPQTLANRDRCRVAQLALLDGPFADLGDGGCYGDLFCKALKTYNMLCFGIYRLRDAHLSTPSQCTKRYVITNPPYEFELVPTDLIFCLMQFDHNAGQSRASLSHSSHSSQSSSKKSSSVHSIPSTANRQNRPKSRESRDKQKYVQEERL", "sequence (Q9NPA1 whole entry partner, species assumed)": "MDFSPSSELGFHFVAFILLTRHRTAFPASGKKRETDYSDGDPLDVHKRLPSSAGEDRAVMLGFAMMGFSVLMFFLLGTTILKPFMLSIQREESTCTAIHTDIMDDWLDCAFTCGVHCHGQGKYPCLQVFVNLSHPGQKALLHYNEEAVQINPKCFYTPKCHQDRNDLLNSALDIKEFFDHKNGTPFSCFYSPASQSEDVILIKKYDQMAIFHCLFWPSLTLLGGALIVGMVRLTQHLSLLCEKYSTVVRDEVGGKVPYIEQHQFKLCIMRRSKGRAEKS", "assay": "Tl+ flux assay in HEK-293 cells expressing Maxi-K", "type": "cell-based", "settings": "30 µM test compound, % of maximum response for paxilline"}
{"smiles": "COc1ccc(Cl)cc1NC(=O)CN1CCN(S(=O)(=O)N2CCC(C)CC2)CC1", "note": "[Compound 4]", "Maxi-K (Slo1 α1/β3) Efficacy": "inactive"}
{"smiles": "COc1ccc(Cl)cc1NC(=O)[C@H](C)N1CCN(S(=O)(=O)N2CCC(C(F)(F)F)CC2)CC1", "note": "[Compound 61]", "Maxi-K (Slo1 α1/β3) Efficacy": "inactive"}
{"target": "Maxi-K (Slo1 α1/β3) (Homo sapiens, UniProt Q12791)", "assay": "Tl+ flux assay in HEK-293 cells expressing Maxi-K", "type": "cell-based", "settings": "CRC, Tl+ flux, HEK-293 expressing Maxi-K"}
{"smiles": "COc1ccc(Cl)cc1NC(=O)CN1CCN(S(=O)(=O)N2CCC(C)CC2)CC1", "note": "[Compound 4]", "Maxi-K (Slo1 α1/β3) IC50": "inactive"}
{"smiles": "COc1ccc(Cl)cc1NC(=O)[C@H](C)N1CCN(S(=O)(=O)N2CCC(C(F)(F)F)CC2)CC1", "note": "[Compound 61]", "Maxi-K (Slo1 α1/β3) IC50": "inactive"}
{"target": "Maxi-K (Slo1 α1/β3) (Homo sapiens, UniProt Q12791)", "assay": "Tl+ flux assay in HEK-293 cells expressing Maxi-K", "type": "cell-based", "settings": "Tl+ flux"}
{"smiles": "COc1ccc(C(F)(F)F)cc1NC(=O)CN1CCN(S(=O)(=O)N2CCC(C)CC2)CC1", "note": "[Compound 27]", "Maxi-K inhibition in words": "weak inhibition"}
{"smiles": "COc1ccc(Cl)cc1NC(=O)[C@H](C)N1CCN(S(=O)(=O)N2CCC(C(F)(F)F)CC2)CC1", "note": "[Compound 61]", "Maxi-K inhibition in words": "inactive"}
{"smiles": "COc1ccc(Cl)cc1NC(=O)CN1CCN(S(=O)(=O)N2CCC(C)CC2)C[C@H]1C", "note": "[Compound 87]", "Maxi-K inhibition in words": "weak inhibition"}
{"tested_on": "mouse model of Kcnt1 GOF", "assay": "not given", "settings": "orally available; cited from earlier work"}
{"smiles": "C[C@H](NC(=O)c1cc(C(F)(F)F)nn1C)c1nc(-c2ccnc(C(F)(F)F)c2)no1", "note": "[Compound 3]", "EEG phenotype": "normalizes the EEG phenotype"}
{"tested_on": "cortical neuronal culture", "assay": "not given", "settings": "overexcited, spontaneously firing cortical neuronal culture; cited from earlier work"}
{"smiles": "COc1ccc(Cl)cc1NC(=O)CN1CCN(S(=O)(=O)N2CCC(C)CC2)CC1", "note": "[Compound 4]", "firing rate": "decreased the firing rate"}
{"target": "T1, A934T Slack (Homo sapiens, UniProt Q5JUK3, A915T)", "T1 sequence (Q5JUK3 1-1235 isoform Q5JUK3-3 A934T)": "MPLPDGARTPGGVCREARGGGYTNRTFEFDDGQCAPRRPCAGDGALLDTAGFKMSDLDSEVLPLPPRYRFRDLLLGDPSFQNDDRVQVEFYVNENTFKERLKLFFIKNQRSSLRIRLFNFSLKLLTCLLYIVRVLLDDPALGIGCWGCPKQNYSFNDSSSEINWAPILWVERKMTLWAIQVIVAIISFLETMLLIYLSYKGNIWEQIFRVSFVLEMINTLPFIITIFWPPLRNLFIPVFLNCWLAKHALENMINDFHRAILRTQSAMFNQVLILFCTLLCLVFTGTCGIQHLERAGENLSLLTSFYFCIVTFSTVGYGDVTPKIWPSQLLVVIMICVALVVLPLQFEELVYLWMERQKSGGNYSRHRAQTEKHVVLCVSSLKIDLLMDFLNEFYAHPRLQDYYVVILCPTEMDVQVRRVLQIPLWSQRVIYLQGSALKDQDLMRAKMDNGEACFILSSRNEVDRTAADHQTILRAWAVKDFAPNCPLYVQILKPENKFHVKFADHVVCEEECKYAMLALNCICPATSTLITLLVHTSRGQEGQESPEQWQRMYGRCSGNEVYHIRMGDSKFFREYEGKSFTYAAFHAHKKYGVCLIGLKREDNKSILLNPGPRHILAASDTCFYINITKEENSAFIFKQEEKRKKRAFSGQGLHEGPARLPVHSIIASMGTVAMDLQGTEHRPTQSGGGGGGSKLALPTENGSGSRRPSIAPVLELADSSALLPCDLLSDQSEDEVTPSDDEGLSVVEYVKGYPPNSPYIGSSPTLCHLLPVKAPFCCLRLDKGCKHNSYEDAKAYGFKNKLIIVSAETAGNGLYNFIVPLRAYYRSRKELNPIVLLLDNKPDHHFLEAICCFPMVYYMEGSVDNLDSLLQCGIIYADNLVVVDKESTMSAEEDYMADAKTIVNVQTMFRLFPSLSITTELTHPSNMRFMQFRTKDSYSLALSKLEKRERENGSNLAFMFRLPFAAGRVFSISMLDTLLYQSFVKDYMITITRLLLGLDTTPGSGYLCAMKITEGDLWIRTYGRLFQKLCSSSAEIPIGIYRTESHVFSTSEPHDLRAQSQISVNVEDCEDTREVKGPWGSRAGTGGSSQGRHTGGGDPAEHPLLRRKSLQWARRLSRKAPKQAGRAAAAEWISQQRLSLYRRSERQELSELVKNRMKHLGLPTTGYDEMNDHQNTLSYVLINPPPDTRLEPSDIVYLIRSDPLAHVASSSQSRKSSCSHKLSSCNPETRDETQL", "assay": "Tl+ flux assay in HEK-293 cells expressing A934T Slack", "settings": "Table 6; 30 µM test compound, % of maximum response for VU0606170", "units": {"A934T Efficacy": "%"}}
{"smiles": "COc1ccc(F)cc1NC(=O)CN1CCN(S(=O)(=O)N2CCC(C)CC2)CC1", "note": "[Compound 24]", "A934T Efficacy": 100}
{"target": "T2, wild-type human (WT) Slack (Homo sapiens, UniProt Q5JUK3)", "T2 sequence (Q5JUK3 1-1235 isoform Q5JUK3-3)": "T1 sequence (Q5JUK3 1-1235 isoform Q5JUK3-3 A934T) with T934A", "assay": "Tl+ flux assay in HEK-293 cells stably expressing WT Slack", "type": "cell-based", "settings": "Table 1; CRC, Tl+ flux, HEK-293 WT Slack; Mode Inh", "units": {"IC50 / EC50 (IC50, inhibitors)": "µM"}}
{"smiles": "COc1ccc(Cl)cc1NC(=O)CN1CCN(S(=O)(=O)N2CCC(C)CC2)CC1", "note": "[Compound 4]", "IC50 / EC50 (IC50, inhibitors)": 2.4}
{"target": "T2, wild-type human (WT) Slack", "assay": "Tl+ flux assay in HEK-293 cells stably expressing WT Slack", "type": "cell-based", "settings": "Table 3; no mode assigned"}
{"smiles": "COc1ccc(Cl)cc1NC(=O)CN1CCN(S(=O)(=O)N2CCN(S(=O)(=O)N3CCCCC3)CC2)CC1", "note": "[Compound 43]", "IC50 / EC50 (result in words)": "inactive"}
{"smiles": "COc1ccc(Cl)cc1NC(=O)CN1CCN(S(=O)(=O)N2CCN(S(=O)(=O)N3CCOCC3)CC2)CC1", "note": "[Compound 44]", "IC50 / EC50 (result in words)": "inactive"}
{"smiles": "COc1ccc(Cl)cc1NC(=O)CN1CCN(S(=O)(=O)N2CCN(S(=O)(=O)C3CCCCC3)CC2)CC1", "note": "[Compound 45]", "IC50 / EC50 (result in words)": "inactive"}
{"smiles": "COc1ccc(Cl)cc1NC(=O)CN1CCN(S(=O)(=O)N2CCN(S(=O)(=O)c3ccc(C)cc3)CC2)CC1", "note": "[Compound 47]", "IC50 / EC50 (result in words)": "inactive"}
{"target": "T2, wild-type human (WT) Slack", "assay": "Tl+ flux assay in HEK-293 cells stably expressing WT Slack", "type": "cell-based", "settings": "running text and footnotes; WT Slack Tl+ flux"}
{"smiles": "CC1CCN(S(=O)(=O)N2CCN(CC(=O)Nc3ccccc3Cl)CC2)CC1", "note": "[Compound 15]", "Slack activity profile in words": "mixed profile"}
{"smiles": "Cc1ccccc1NC(=O)CN1CCN(S(=O)(=O)N2CCC(C)CC2)CC1", "note": "[Compound 18]", "Slack activity profile in words": "mixed profile"}
{"smiles": "Cc1cccc(NC(=O)CN2CCN(S(=O)(=O)N3CCC(C)CC3)CC2)c1", "note": "[Compound 19]", "Slack activity profile in words": "mixed profile"}
{"smiles": "COc1ccccc1NC(=O)CN1CCN(S(=O)(=O)N2CCC(C)CC2)CC1", "note": "[Compound 21]", "Slack activity profile in words": "maintained the inhibitory profile"}
{"smiles": "COc1cccc(NC(=O)CN2CCN(S(=O)(=O)N3CCC(C)CC3)CC2)c1", "note": "[Compound 22]", "Slack activity profile in words": "mixed profile"}
{"smiles": "CC1CCN(S(=O)(=O)N2CCN(CC(=O)Nc3cc(Cl)ccc3F)CC2)CC1", "note": "[Compound 29]", "Slack activity profile in words": "not effective"}
{"smiles": "CC1CCN(S(=O)(=O)N2CCN(CC(=O)Nc3cc(Cl)ccc3Cl)CC2)CC1", "note": "[Compound 30]", "Slack activity profile in words": "not effective"}
{"smiles": "Cc1ccc(Cl)cc1NC(=O)CN1CCN(S(=O)(=O)N2CCC(C)CC2)CC1", "note": "[Compound 31]", "Slack activity profile in words": "not effective"}
{"smiles": "COc1ccc(Cl)cc1NC(=O)CN1CCN(S(=O)(=O)N2CCN(S(=O)(=O)N3CCC(F)(F)C3)CC2)CC1", "note": "[Compound 50]", "Slack activity profile in words": "weak activators"}
{"smiles": "COc1ccc(Cl)cc1NC(=O)CN1CCN(S(=O)(=O)N2CCN(C(=O)N3CCCCC3)CC2)CC1", "note": "[Compound 51]", "Slack activity profile in words": "weak activators"}
{"smiles": "CCCC1CCN(C(=O)N2CCN(S(=O)(=O)N3CCN(CC(=O)Nc4cc(Cl)ccc4OC)CC3)CC2)CC1", "note": "[Compound 52]", "Slack activity profile in words": "weak inhibitor"}
{"smiles": "COc1ccc(Cl)cc1NC(=O)CN1CCN(S(=O)(=O)N2CCN(C(=O)N3CCC(C(C)C)CC3)CC2)CC1", "note": "[Compound 53]", "Slack activity profile in words": "mixed profile"}
{"smiles": "COc1ccc(Cl)cc1NC(=O)CN1CCN(S(=O)(=O)N2CCN(C(=O)N3CCCCCC3)CC2)CC1", "note": "[Compound 55]", "Slack activity profile in words": "weak activators"}
{"smiles": "COc1ccc(Cl)cc1NC(=O)CN1CCN(S(=O)(=O)N2CCC(C)CC2)[C@@H](C)C1", "note": "[Compound 68]", "Slack activity profile in words": "significantly reduced potency"}
{"smiles": "COc1ccc(Cl)cc1NC(=O)CN1CCN(S(=O)(=O)N2CCC(C)CC2)C[C@@H]1C", "note": "[Compound 71]", "Slack activity profile in words": "well tolerated"}
{"smiles": "COc1ccc(Cl)cc1NC(=O)CN(C)CCN(C)S(=O)(=O)N1CCC(C)CC1", "note": "[Compound 81]", "Slack activity profile in words": "retained inhibitory activity but exhibited reduced potency"}
{"smiles": "COc1ccc(Cl)cc1NC(=O)CN1CCN(S(=O)(=O)N2CCC(C)CC2)[C@H](C)C1", "note": "[Compound 86]", "Slack activity profile in words": "significantly reduced potency"}
{"smiles": "COc1ccc(Cl)cc1NC(=O)CN1CCN(S(=O)(=O)N2CCC(C)CC2)C[C@H]1C", "note": "[Compound 87]", "Slack activity profile in words": "equipotent to hit compound 4"}
{"smiles": "COc1ccc(Cl)cc1NC(=O)N1CC2(CCN(S(=O)(=O)N3CCC(C)CC3)CC2)C1", "note": "[Compound 88]", "Slack activity profile in words": "weak activators"}
{"smiles": "COc1ccc(Cl)cc1NC(=O)N1CC2(C1)CN(S(=O)(=O)N1CCC(C)CC1)C2", "note": "[Compound 90]", "Slack activity profile in words": "weak inhibitor"}
{"smiles": "COc1ccc(Cl)cc1NC(=O)N1C[C@@H]2CN(S(=O)(=O)N3CCC(C)CC3)C[C@@H]2C1", "note": "[Compound 91]", "Slack activity profile in words": "devoid of activity"}
{"smiles": "COc1ccc(Cl)cc1NC(=O)N1CCCN(S(=O)(=O)N2CCC(C)CC2)CC1", "note": "[Compound 92]", "Slack activity profile in words": "moderately potent"}
{"tested_on": "human wild-type (WT) Slack channels", "assay": "not given", "settings": "whole-cell patch clamp, HEK-293, human WT Slack; cited from earlier work"}
{"smiles": "Cc1cccc(CC(=O)Nc2cnn(-c3cccc(C(=O)NCc4ccccc4-n4cncn4)c3)c2)c1", "note": "[Compound 1]", "pIC50": 5.49}
